Experimental data: the kinase profiling compilation of Christmann-Franck et al. (2016)

Assays:
Test in all cases: KINOMEscan competition binding
Details in all cases: compound 10.0 µM
RAF1 (human) = RAF1 (human) (UniProt P04049)
MAP3K7 (human) = MAP3K7 (human) (UniProt O43318)
CDK3 (human) = CDK3 (human) (UniProt Q00526)
PIM1 (human) = PIM1 (human) (UniProt P11309)
INSR (human) = INSR (human) (UniProt P06213)
MARK3 (human) = MARK3 (human) (UniProt P27448)
BTK (human) = BTK (human) (UniProt Q06187)
ROCK2 (human) = ROCK2 (human) (UniProt O75116)
RPS6KA3 KD1 (human) = RPS6KA3 KD1 (human) (UniProt P51812)
CDK9 (human) = CDK9 (human) (UniProt P50750)
ACVR1B (human) = ACVR1B (human) (UniProt P36896)
Chain of ACVR1B (human) (P36896 whole entry, looked up): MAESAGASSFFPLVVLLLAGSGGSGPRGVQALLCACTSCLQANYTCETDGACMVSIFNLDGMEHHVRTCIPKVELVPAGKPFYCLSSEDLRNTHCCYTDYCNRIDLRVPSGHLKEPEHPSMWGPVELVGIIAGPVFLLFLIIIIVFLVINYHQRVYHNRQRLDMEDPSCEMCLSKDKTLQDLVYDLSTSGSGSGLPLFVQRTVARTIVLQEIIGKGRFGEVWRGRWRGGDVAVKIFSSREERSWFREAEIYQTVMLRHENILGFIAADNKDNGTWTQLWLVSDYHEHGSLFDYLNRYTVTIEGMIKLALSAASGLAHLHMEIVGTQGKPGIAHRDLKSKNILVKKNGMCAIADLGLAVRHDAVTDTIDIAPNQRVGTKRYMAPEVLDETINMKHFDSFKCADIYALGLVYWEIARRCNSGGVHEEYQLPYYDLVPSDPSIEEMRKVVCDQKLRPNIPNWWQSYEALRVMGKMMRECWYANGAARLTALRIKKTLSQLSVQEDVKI

[1] = tested on: KIT (human), P10721 [D816V]
PAK2 (human) = PAK2 (human) (UniProt Q13177)
ALK (human) = ALK (human) (UniProt Q9UM73)
Chain of ALK (human) (Q9UM73 whole entry, looked up): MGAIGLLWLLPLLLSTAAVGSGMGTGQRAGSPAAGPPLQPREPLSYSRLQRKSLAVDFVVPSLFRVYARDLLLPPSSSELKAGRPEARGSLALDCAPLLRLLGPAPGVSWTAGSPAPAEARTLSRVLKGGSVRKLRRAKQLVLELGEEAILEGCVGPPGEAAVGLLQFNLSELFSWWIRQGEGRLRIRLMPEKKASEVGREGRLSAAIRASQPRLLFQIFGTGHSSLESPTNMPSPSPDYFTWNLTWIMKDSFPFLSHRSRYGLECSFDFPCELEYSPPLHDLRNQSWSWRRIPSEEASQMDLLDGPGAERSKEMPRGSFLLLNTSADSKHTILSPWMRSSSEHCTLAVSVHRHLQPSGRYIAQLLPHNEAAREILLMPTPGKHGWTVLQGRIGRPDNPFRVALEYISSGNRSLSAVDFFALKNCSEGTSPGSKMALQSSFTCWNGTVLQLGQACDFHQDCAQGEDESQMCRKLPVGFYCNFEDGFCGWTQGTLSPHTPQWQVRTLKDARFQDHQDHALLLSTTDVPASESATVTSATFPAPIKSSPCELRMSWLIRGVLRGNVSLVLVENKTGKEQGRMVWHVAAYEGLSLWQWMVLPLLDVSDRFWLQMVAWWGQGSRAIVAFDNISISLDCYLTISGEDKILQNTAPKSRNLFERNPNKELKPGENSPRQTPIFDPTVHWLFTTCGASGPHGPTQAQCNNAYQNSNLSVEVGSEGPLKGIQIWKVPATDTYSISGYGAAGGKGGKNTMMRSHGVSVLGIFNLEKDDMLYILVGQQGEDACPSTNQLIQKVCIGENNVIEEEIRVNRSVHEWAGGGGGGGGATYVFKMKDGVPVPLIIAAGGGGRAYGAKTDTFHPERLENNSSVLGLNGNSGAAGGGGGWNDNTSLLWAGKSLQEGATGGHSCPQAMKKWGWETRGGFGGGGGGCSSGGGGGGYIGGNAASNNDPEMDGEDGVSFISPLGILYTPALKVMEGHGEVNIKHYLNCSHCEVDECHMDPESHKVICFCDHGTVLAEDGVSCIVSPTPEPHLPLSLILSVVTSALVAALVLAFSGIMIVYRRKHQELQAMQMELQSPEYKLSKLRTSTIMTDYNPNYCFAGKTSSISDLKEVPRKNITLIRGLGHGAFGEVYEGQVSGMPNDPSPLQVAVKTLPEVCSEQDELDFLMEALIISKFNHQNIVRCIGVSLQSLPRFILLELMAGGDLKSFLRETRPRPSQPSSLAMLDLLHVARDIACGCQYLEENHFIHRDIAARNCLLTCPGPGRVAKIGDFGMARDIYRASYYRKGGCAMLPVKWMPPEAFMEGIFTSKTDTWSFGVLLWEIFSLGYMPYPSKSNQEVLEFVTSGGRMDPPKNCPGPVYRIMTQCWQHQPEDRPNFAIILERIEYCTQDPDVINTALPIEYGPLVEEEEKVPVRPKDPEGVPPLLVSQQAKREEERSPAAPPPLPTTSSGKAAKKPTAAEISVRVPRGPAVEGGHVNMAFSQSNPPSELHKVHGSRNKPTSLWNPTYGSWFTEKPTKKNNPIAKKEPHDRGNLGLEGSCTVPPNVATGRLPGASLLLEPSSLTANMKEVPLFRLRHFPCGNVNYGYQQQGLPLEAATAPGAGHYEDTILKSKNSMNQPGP

PIP5K1A (human) = PIP5K1A (human) (UniProt Q99755)
PAK4 (human) = PAK4 (human) (UniProt O96013)
AURKB (human) = AURKB (human) (UniProt Q96GD4)
SRC (human) = SRC (human) (UniProt P12931)
NEK6 (human) = NEK6 (human) (UniProt Q9HC98)
DCLK1 (human) = DCLK1 (human) (UniProt O15075)
PLK1 (human) = PLK1 (human) (UniProt P53350)
HIPK1 (human) = HIPK1 (human) (UniProt Q86Z02)
STK11 (human) = STK11 (human) (UniProt Q15831)
PLK3 (human) = PLK3 (human) (UniProt Q9H4B4)
[2] = tested on: ABL1 (human), P00519 [T315I]
MKNK2 (human) = MKNK2 (human) (UniProt Q9HBH9)
GRK1 (human) = GRK1 (human) (UniProt Q15835)
CLK3 (human) = CLK3 (human) (UniProt P49761)
Chain of CLK3 (human) (P49761 whole entry, looked up): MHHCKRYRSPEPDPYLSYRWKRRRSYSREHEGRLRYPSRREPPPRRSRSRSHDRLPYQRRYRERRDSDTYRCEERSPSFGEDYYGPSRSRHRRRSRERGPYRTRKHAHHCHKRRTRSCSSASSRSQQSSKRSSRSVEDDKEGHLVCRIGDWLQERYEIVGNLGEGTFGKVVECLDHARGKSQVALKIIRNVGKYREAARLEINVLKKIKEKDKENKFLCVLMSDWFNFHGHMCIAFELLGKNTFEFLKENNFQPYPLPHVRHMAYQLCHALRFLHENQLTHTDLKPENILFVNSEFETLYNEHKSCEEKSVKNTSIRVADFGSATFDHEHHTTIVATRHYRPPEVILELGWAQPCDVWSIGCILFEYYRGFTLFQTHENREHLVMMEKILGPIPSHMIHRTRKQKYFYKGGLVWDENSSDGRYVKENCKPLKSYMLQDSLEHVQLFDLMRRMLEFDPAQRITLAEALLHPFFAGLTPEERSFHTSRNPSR

SIK1 (human) = SIK1 (human) (UniProt P57059)
ZAP70 (human) = ZAP70 (human) (UniProt P43403)
CDK19 (human) = CDK19 (human) (UniProt Q9BWU1)
MAP3K9 (human) = MAP3K9 (human) (UniProt P80192)
[3] = molecular target: JAK3 JH1 catalytic (human) (UniProt P52333)
MAPK11 (human) = MAPK11 (human) (UniProt Q15759)
AKT2 (human) = AKT2 (human) (UniProt P31751)
CAMK4 (human) = CAMK4 (human) (UniProt Q16566)
CDK16 (human) = CDK16 (human) (UniProt Q00536)
Chain of CDK16 (human) (Q00536 whole entry, looked up): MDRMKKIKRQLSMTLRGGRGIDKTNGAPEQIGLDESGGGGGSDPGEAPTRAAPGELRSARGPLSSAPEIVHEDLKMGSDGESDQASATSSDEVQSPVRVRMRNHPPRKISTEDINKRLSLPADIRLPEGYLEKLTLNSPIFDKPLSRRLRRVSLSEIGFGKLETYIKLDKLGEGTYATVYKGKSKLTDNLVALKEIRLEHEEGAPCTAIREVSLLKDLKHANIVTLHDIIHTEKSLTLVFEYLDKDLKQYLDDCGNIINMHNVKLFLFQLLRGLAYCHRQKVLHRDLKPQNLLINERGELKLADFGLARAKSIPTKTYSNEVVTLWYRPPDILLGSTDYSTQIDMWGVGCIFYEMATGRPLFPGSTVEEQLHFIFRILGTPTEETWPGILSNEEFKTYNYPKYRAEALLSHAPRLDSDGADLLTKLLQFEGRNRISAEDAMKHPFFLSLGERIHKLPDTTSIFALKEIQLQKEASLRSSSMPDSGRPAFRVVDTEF

MAPK10 (human) = MAPK10 (human) (UniProt P53779)
EPHA2 (human) = EPHA2 (human) (UniProt P29317)
Chain of EPHA2 (human) (P29317 whole entry, looked up): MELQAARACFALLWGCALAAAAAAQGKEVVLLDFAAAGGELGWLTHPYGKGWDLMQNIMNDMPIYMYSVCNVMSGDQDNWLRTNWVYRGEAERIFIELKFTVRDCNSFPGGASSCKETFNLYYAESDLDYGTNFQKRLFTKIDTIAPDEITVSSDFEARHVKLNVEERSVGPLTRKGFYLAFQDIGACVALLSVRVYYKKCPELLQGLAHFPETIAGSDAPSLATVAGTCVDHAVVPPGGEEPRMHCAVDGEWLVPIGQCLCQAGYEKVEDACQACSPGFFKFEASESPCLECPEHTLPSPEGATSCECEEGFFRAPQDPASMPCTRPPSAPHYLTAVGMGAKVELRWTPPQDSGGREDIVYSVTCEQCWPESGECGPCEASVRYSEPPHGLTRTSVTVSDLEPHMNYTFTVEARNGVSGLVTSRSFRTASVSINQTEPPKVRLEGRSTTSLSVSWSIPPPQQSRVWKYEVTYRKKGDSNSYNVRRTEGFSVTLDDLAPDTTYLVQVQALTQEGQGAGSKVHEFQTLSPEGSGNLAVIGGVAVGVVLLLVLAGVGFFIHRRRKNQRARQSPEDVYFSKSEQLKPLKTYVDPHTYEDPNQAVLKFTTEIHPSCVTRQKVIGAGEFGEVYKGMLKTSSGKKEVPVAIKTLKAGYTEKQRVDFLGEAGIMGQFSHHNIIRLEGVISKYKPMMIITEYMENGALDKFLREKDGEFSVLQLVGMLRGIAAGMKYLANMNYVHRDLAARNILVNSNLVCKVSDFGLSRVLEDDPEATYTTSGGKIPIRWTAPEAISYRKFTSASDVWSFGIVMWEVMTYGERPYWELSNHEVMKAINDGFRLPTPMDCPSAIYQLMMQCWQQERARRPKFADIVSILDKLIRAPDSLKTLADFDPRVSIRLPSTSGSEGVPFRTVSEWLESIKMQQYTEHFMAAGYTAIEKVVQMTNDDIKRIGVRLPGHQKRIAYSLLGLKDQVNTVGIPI

DMPK (human) = DMPK (human) (UniProt Q09013)
CSNK1A1 (human) = CSNK1A1 (human) (UniProt P48729)

Chain of MARK3 (human) (P27448 whole entry, looked up): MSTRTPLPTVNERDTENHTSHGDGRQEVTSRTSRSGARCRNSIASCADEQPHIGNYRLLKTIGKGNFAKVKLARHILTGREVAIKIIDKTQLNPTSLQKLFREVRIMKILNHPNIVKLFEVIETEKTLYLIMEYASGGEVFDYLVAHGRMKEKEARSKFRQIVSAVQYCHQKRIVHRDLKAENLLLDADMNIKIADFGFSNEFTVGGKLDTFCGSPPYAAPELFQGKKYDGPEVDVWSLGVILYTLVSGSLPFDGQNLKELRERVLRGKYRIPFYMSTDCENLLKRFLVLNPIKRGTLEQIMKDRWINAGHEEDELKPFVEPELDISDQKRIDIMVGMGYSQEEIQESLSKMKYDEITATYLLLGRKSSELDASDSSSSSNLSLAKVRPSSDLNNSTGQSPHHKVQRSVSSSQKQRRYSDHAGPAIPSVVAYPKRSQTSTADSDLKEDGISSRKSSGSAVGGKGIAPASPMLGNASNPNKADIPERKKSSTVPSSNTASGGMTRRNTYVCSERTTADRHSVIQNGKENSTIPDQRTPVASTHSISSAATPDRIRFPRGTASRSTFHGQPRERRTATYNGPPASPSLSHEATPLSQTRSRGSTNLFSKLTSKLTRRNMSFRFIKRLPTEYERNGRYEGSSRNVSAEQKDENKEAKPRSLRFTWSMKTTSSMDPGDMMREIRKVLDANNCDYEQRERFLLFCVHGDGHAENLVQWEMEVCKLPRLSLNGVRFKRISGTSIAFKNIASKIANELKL

kinase still bound, per cent of control (RAF1 (human)): 1%
kinase still bound, per cent of control (MAP3K7 (human)): 7.2%
kinase still bound, per cent of control (CDK3 (human)): 44%
kinase still bound, per cent of control (PIM1 (human)): 90%
kinase still bound, per cent of control (INSR (human)): 84%
kinase still bound, per cent of control (MARK3 (human)): 75%
kinase still bound, per cent of control (BTK (human)): 96%
kinase still bound, per cent of control (ROCK2 (human)): 63%
kinase still bound, per cent of control (RPS6KA3 KD1 (human)): 100%
kinase still bound, per cent of control (CDK9 (human)): 56%
kinase still bound, per cent of control (ACVR1B (human)): 100%
kinase still bound, per cent of control [1]: 1.7%
kinase still bound, per cent of control (PAK2 (human)): 97%
kinase still bound, per cent of control (ALK (human)): 57%
kinase still bound, per cent of control (PIP5K1A (human)): 73%
kinase still bound, per cent of control (PAK4 (human)): 100%
kinase still bound, per cent of control (AURKB (human)): 4.7%
kinase still bound, per cent of control (SRC (human)): 70%
kinase still bound, per cent of control (NEK6 (human)): 100%
kinase still bound, per cent of control (DCLK1 (human)): 82%
kinase still bound, per cent of control (PLK1 (human)): 100%
kinase still bound, per cent of control (HIPK1 (human)): 52%
kinase still bound, per cent of control (STK11 (human)): 97%
kinase still bound, per cent of control (PLK3 (human)): 16%
kinase still bound, per cent of control [2]: 46%
kinase still bound, per cent of control (MKNK2 (human)): 0.05%
kinase still bound, per cent of control (GRK1 (human)): 89%
kinase still bound, per cent of control (CLK3 (human)): 65%
kinase still bound, per cent of control (SIK1 (human)): 100%
kinase still bound, per cent of control (ZAP70 (human)): 100%
kinase still bound, per cent of control (CDK19 (human)): 0.35%
kinase still bound, per cent of control (MAP3K9 (human)): 100%
kinase still bound, per cent of control [3]: 75%
kinase still bound, per cent of control (MAPK11 (human)): 1.2%
kinase still bound, per cent of control (AKT2 (human)): 96%
kinase still bound, per cent of control (CAMK4 (human)): 100%
kinase still bound, per cent of control (CDK16 (human)): 98%
kinase still bound, per cent of control (MAPK10 (human)): 74%
kinase still bound, per cent of control (EPHA2 (human)): 37%
kinase still bound, per cent of control (DMPK (human)): 100%
kinase still bound, per cent of control (CSNK1A1 (human)): 100%
SMILES: O=C(Nc1ccc(Oc2ncnc3[nH]ncc23)cc1)Nc1ccc(Cl)c(C(F)(F)F)c1
